Experimental data from ChEMBL document CHEMBL5465560, “Selectivity Literature for EUbOPEN Chemogenomic Library” (2024).
One block for each compound: values may come before it.

How the values were obtained:
[1] = target: T1, Ephrin type-A receptor 8 (Homo sapiens) (UniProt P29322); assay: Selectivity interaction (Ambit KINOMEscan and KiNATiv profiling in Jurkat cells) EUB0000090b EPHA8; type: cell-based; conditions: at 1 µM
T1 sequence (whole entry): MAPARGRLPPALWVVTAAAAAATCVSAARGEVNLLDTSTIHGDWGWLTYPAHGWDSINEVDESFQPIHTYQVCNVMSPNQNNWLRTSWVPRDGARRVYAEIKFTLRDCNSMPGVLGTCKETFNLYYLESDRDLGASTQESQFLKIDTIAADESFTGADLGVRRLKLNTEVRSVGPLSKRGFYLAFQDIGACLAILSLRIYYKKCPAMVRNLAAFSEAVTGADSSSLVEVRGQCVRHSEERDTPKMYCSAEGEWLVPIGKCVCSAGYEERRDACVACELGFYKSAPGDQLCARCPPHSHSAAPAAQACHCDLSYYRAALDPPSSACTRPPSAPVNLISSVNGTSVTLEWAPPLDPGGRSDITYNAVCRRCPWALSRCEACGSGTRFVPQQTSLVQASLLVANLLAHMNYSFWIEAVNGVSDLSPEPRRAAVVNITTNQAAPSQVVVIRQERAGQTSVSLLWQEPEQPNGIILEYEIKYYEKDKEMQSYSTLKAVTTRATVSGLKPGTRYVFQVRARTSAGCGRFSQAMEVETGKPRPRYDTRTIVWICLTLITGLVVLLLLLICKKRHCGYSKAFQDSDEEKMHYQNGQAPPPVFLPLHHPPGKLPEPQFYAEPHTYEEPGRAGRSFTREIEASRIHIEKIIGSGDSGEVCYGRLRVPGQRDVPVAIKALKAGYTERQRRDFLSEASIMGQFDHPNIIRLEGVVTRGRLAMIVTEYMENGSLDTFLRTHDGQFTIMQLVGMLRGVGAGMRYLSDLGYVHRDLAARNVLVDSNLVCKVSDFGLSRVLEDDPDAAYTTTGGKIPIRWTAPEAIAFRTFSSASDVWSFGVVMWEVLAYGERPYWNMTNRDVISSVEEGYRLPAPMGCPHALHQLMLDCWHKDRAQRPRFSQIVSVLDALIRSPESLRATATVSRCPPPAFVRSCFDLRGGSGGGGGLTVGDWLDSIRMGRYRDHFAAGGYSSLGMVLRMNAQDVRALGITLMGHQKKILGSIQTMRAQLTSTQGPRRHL

[2] = target: Casein kinase I isoform gamma-3 (Homo sapiens) (UniProt Q9Y6M4); assay: Selectivity interaction (Ambit KINOMEscan and KiNATiv profiling in Jurkat cells) EUB0000090b CSNK1G3; type: cell-based; conditions: at 1 µM
Sequence of Casein kinase I isoform gamma-3 (Homo sapiens) (Q9Y6M4 whole entry, looked up, canonical isoform): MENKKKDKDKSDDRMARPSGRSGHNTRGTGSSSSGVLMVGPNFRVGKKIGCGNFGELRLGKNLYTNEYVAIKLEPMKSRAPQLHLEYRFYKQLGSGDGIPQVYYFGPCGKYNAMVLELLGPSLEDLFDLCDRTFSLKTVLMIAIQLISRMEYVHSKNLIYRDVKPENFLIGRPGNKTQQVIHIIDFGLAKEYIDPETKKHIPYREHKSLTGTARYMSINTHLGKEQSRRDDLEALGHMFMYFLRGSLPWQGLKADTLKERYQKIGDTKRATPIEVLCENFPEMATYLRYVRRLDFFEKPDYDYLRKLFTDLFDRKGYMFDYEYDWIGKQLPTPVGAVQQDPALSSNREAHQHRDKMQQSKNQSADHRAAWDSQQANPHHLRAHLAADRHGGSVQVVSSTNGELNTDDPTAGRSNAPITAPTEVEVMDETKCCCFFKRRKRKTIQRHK

[3] = target: T2, Eukaryotic elongation factor 2 kinase (Homo sapiens) (UniProt O00418); assay: Selectivity interaction (Kinase panel (literature)) EUB0001199aCl EEF2K; conditions: at 1 µM
T2 sequence (whole entry): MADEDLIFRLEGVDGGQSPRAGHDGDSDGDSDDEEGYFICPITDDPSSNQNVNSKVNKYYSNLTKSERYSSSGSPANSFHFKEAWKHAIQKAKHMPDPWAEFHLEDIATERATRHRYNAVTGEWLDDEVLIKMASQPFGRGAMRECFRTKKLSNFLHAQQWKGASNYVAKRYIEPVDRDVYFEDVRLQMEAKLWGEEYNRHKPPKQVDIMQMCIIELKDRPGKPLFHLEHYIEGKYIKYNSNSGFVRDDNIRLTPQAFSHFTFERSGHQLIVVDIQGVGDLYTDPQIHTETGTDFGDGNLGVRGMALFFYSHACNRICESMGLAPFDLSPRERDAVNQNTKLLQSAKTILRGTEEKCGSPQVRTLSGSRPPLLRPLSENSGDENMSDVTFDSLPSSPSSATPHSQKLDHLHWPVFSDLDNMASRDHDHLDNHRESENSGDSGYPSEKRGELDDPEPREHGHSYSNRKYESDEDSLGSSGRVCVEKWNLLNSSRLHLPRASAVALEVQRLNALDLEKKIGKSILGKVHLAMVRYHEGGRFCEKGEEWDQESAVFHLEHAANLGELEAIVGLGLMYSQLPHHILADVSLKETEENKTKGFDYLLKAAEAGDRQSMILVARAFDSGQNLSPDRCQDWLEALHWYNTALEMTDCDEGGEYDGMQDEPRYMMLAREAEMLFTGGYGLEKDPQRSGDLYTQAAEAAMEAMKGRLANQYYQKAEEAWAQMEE

[4] = target: Cyclin-dependent kinase 2 (Homo sapiens, UniProt P24941); assay: Selectivity interaction (KinomeScan (DiscoverX)) EUB0001079a CDK2; conditions: at 1 µM
[5] = target: Ribosomal protein S6 kinase alpha-1 (Homo sapiens, UniProt Q15418); assay: Selectivity interaction (KinomeScan (DiscoverX)) EUB0001619a RPS6KA1; conditions: at 1 µM
Sequence of Ribosomal protein S6 kinase alpha-1 (Q15418 whole entry): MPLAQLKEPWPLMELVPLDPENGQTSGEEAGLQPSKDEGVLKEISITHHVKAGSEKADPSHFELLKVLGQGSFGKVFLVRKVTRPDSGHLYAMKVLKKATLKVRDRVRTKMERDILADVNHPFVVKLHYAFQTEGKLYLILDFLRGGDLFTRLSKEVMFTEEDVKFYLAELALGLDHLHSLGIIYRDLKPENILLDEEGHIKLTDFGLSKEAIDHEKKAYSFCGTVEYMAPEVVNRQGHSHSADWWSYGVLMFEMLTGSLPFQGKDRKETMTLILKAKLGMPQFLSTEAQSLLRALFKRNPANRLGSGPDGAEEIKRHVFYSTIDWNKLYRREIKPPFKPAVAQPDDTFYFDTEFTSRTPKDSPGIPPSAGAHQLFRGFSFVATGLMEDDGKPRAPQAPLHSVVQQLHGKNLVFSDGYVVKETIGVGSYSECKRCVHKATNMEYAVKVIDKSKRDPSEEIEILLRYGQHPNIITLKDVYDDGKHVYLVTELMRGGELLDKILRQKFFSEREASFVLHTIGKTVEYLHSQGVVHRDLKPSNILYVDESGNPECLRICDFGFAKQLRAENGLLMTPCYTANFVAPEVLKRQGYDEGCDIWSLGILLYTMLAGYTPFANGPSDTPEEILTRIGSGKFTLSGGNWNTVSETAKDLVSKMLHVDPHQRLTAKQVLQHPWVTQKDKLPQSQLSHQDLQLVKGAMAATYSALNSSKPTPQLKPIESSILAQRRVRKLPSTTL

[6] = target: Receptor tyrosine-protein kinase erbB-4 (Homo sapiens, UniProt Q15303); assay: Selectivity interaction (KinomeScan (DiscoverX)) EUB0000045b ERBB4
Sequence of Receptor tyrosine-protein kinase erbB-4 (Q15303 whole entry): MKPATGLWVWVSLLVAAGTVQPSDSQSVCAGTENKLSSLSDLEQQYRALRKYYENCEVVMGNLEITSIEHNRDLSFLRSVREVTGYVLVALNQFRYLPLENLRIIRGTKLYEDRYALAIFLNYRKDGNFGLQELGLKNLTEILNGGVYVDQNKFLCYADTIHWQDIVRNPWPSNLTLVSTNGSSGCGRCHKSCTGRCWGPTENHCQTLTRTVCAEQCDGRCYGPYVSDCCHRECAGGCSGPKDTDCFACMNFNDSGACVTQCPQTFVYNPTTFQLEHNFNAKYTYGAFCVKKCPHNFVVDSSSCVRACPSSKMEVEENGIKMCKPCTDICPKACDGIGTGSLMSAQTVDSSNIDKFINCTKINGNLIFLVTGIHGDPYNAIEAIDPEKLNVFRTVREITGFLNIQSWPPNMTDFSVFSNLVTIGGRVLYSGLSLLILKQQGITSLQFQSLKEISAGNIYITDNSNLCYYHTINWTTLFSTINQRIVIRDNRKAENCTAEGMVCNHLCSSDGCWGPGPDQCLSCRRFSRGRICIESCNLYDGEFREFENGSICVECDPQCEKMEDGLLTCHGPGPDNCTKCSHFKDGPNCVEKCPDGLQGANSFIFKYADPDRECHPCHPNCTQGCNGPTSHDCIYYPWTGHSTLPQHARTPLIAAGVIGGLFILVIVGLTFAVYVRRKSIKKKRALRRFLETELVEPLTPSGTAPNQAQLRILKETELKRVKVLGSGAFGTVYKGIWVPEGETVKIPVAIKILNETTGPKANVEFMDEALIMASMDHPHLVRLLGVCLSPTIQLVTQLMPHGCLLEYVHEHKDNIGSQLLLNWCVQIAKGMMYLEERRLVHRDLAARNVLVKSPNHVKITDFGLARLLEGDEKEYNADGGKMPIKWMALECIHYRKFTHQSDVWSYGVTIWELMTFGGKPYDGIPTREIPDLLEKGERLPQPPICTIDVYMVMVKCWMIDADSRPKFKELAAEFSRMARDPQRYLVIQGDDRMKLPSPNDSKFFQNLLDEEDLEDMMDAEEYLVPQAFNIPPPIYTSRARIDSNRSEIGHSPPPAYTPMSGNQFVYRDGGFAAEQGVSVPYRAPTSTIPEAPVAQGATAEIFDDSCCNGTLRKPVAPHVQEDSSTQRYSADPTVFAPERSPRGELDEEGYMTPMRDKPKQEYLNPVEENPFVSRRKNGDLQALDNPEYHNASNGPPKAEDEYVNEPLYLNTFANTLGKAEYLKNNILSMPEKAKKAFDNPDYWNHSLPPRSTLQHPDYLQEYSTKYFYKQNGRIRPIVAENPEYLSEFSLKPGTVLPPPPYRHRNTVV

[7] = target: ALK tyrosine kinase receptor (Homo sapiens, UniProt Q9UM73); assay: Selectivity interaction (KinomeScan (DiscoverX)) EUB0000595a ALK; conditions: at 10 µM
Sequence of ALK tyrosine kinase receptor (Q9UM73 19-1620 limits assumed): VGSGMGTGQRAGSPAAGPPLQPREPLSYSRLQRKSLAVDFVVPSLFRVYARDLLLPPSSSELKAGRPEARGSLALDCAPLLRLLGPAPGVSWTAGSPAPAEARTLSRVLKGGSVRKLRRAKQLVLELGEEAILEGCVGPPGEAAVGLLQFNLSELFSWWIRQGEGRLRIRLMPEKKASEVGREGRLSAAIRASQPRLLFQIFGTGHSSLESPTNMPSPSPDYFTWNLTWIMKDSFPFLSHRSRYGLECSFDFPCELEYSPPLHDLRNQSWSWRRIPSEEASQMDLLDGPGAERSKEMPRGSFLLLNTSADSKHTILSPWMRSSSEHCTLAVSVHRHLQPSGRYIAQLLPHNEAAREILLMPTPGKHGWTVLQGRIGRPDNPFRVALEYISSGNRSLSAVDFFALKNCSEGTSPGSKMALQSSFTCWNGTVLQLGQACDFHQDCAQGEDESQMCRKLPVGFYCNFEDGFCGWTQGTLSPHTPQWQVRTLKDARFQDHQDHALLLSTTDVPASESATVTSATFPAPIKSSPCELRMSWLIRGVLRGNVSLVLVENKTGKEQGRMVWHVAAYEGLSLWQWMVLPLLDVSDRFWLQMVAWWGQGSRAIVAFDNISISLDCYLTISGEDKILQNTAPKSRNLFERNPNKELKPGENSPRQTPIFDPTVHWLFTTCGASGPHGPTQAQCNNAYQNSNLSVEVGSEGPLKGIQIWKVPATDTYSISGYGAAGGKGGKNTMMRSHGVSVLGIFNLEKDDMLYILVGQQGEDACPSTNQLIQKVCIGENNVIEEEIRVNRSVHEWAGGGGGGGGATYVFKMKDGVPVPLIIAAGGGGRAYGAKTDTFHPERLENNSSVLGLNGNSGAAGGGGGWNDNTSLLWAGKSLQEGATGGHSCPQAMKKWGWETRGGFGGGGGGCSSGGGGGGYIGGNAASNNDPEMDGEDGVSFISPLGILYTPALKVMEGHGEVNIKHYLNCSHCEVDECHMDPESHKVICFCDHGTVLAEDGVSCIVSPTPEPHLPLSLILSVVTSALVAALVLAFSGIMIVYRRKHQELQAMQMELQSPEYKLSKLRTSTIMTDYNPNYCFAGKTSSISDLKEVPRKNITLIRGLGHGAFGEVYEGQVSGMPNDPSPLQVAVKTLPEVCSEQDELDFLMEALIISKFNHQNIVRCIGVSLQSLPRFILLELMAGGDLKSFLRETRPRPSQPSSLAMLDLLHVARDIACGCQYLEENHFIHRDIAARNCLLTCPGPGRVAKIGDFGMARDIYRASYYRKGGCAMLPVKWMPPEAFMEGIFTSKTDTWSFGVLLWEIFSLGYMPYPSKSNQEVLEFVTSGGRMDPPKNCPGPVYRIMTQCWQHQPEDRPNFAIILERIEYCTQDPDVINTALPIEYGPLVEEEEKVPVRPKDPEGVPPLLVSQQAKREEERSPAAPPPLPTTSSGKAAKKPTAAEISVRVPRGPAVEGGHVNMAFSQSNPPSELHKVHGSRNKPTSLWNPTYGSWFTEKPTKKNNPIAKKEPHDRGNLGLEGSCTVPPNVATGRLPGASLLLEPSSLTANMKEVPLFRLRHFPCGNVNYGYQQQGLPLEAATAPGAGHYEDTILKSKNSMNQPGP

[8] = target: Phosphorylase b kinase gamma catalytic chain, skeletal muscle/heart isoform (Homo sapiens) (UniProt Q16816); assay: Selectivity interaction (KinomeScan (DiscoverX)) EUB0001049a PHKG1; conditions: at 1 µM
Sequence of Phosphorylase b kinase gamma catalytic chain, skeletal muscle/heart isoform (Homo sapiens) (Q16816 whole entry, looked up, canonical isoform): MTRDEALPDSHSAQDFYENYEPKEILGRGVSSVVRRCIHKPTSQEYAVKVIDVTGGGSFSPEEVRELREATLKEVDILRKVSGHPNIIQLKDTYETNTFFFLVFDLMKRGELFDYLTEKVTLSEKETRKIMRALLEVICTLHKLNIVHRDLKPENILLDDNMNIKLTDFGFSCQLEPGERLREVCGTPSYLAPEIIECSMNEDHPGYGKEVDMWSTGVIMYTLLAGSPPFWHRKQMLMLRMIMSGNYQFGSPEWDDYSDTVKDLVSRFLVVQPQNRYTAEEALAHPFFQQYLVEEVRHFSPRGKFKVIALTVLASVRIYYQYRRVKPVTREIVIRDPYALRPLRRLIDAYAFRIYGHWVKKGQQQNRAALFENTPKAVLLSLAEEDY

[9] = target: 5-hydroxytryptamine receptor 1B (Homo sapiens) (UniProt P28222); assay: Selectivity interaction (Panel of kinases, GPCRs, ion channels and transporters (enzymatic assay)) EUB0000266bCl HTR1B
Sequence of 5-hydroxytryptamine receptor 1B (Homo sapiens) (P28222 whole entry): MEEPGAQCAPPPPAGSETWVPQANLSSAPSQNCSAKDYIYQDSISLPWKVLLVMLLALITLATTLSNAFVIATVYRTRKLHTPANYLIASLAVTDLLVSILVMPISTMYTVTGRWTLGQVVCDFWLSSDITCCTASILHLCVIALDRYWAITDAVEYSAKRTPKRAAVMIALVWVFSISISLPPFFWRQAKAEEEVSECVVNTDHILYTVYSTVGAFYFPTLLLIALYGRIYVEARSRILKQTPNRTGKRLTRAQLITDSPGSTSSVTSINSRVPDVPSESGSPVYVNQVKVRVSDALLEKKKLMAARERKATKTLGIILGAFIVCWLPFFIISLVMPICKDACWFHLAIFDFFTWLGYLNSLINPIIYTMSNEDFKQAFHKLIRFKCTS

[10] = target: Tyrosine-protein kinase Fes/Fps (Homo sapiens) (UniProt P07332); assay: Selectivity interaction (Kinase panel (Z-LYTE Assay)) EUB0001632a FES; conditions: at 10 µM
[11] = target: T3, Mitogen-activated protein kinase 15 (Homo sapiens) (UniProt Q8TD08); assay: Selectivity interaction (Rxn Biology Kinase assay) EUB0001632a MAPK15; conditions: at 10 µM
T3 sequence (whole entry): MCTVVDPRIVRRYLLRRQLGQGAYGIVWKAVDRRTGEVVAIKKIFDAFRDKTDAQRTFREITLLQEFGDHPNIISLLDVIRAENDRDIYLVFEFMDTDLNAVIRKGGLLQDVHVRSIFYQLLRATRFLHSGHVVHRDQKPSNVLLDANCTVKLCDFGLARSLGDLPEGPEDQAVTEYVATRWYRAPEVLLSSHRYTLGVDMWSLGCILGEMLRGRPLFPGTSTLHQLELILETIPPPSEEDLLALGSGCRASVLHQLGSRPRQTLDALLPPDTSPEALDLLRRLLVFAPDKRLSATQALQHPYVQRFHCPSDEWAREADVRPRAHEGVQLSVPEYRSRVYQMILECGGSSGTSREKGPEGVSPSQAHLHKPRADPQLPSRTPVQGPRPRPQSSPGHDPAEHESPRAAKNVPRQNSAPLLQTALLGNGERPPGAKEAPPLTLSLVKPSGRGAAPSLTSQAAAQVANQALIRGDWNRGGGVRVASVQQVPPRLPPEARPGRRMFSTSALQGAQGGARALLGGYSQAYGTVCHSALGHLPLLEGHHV

Structure (SMILES): CN(C)C/C=C/C(=O)Nc1ccc(C(=O)N2CCCC(Nc3ncc(Cl)c(-c4c[nH]c5ccccc45)n3)C2)cc1 (configuration not stated)
% of control [1]: 89%
% of control [2]: 67%

% of inhibition [3]: -5%
Structure (SMILES): CN1Cc2nccc(-c3cn(C)nc3-c3ccc(F)cc3)c2C1=O

Structure (SMILES): Nc1cnc(N2CCc3cc(S(=O)(=O)Nc4c(F)cc(Cl)cc4F)cc(N4CCCC4=O)c32)nc1 [TP-020n]
% of control [4]: 100%

Structure (SMILES): N#Cc1cccc(-c2c[nH]c3ncnc(N4CCOCC4)c23)c1
% of control [5]: 100%

Structure (SMILES): C=CC(=O)Nc1cc(-n2c(=O)ccc3cnc4ccc(-c5ccc(NS(C)(=O)=O)cc5)cc4c32)ccc1C
% of control ([6]; at 1 µM): 78%
% of control ([6]; at 10 µM): 18%

Structure (SMILES): COCC(=O)NC/C=C/c1ccc2ncnc(Nc3ccc(Oc4ccc(C)nc4)c(C)c3)c2c1 [CP-724714]
% of control [7]: 100%

Structure (SMILES): COc1cc(Nc2nc(C)cc(-c3cnn4nc(OC)ccc34)n2)cc(C(F)(F)F)c1
% of control [8]: 85%

pXC50 [9]: < 4.5 M
Structure (SMILES): CCn1c(-c2nc3cc(C(=O)N4CCCC(N)C4)ccc3n2C)cc2ccccc21 (configuration not stated)

% of control [10]: 3.47%
Structure (SMILES): Cn1cc(-n2cnc3c(NCc4nc5cc(Cl)c(Cl)cc5[nH]4)nc(N4CCOCC4)nc32)cn1
% of inhibition [11]: -25.6%
